Usually inhibition stands for how much of the control response was suppressed. Lower therefore signals a weak effect.

4 compounds from patent publication EP0603240B1, “SAFENING HERBICIDAL PYRAZOLYLSULFONYLUREAS” (priority 1991, dated 1993) can be followed below.

Assay [1] concerns velvetleaf (Abutilon theophrasti). Nature of the assay: Example 20, Procedure II: Herbicide No. 1 + EPTC or ERADICANE EXTRA with Antidote Nos. 5 and 15. In kind it is in vivo. Here is the method:
Containers were filled and compacted with a fumigated silt loam top soil to a depth of about 1.3 cm from the top of the container. A first container was designated as an untreated control, a second container was designated as a herbicide control, and a third container was designated as a herbicide + antidote test container. Each of the containers was seeded with a crop species. A measured amount of herbicide dispersed or dissolved in acetone was applied to a measured quantity of soil. To this same quantity of soil treated with herbicide, there was added a measured amount of antidote dispersed or dissolved in acetone. The quantity of soil treated with the herbicide and antidote was thoroughly mixed to incorporate the herbicide and antidote in the soil uniformly. The seed bed in the third container of soil was covered with the soil treated with the herbicide and antidote and the container was leveled. For each test series, the seed beds of the first and second containers were likewise covered by soil layers. the cover layer of the first container was not treated with herbicide or antidote.
The containers were then placed on a bench in a greenhouse and sub-irrigated as required for the duration of the test. […] Plant response is measured in terms of percent injury. Antidote efficacy is indicated as the difference in plant injury by the herbicide(s) without the antidote and with the antidote.
This procedure is the same as Procedure I, but modified in the manner that after incorporation of the chemicals (herbicide and antidote) the containers with the covered seedbed were treated with an initial overhead irrigation equivalent to 0.6 cm rainfall, then subsequently sub-irrigated as required on greenhouse benches.
In the series of greenhouse tests described below, for routine screening purposes the herbicide/antidote compositions were tested in crop/weed combinations involving corn as the crop and either or both of the weeds barnyardgrass (Echinochloa crusgalli), a monocotyledonous weed, and velvetleaf (Abutilon theophrasti), a dicotyledonous weed. In the tables below, these weeds are indicated by the symbols "BYG" and "VL", respectively.
This example describes experiments designed to test two generally efficacious antidotal compounds, i.e., Antidote Nos. 5 and 15, against the herbicidal action of the sulfonylurea compound, Herbicide No. 1, and the commercial herbicides EPTC (Herbicide No. 4) and ERADICANE® EXTRA (EPTC + R-29148, Antidote No. 5). Procedure II above was used in conducting these experiments. Formulations of EPTC and ERADICANE EXTRA were applied onto soil cover layers (to be applied over seed beds), followed by sequential pipetting of Herbicide No. 1 and Antidote No. 15. The soil was mixed to homogeneity and spread over the seed beds followed by 0.6 cm of overhead irrigation.

Assay [2] concerns corn. Nature of the assay: Example 25, greenhouse post-emergence test: Antidote Nos. 1 and 2 against Herbicide Nos. 1-3. The following applies: for % Inhibition Corn: no herbicide; for inhibition at 0.25 g/ha / inhibition at 0.74 g/ha / inhibition at 2.5 g/ha / inhibition at 0.07 g/ha: Zea mays. In kind it is in vivo, Corn (Pioneer 3424 variety). On the procedure:
Additional tests were conducted in the greenhouse in order to evaluate the antidotal efficacy of Antidote Nos. 1 (dichlormid) and 2 (naphthalic anhydride) in protecting corn from the herbicidal activity of Herbicide Nos. 1-3 (i.e., NC-319, NC-319 EX and NC-311, respectively). The chemicals were tested in both preemergence and post-emergence modes of application. The herbicides were prepared and applied as wettable powders; dichlormid was applied as an emulsifiable concentrate, while the naphthalic anhydride was applied as a coating on the corn seed prior to planting.
Corn seeds (Pioneer 3424 variety) were planted in alluvial soil containing compost and fertilizer in pots 12 cm. in diameter. Test chemicals were applied with a spray gun at the spray volume rate of 11.2 l/ha at the time of seeding in the preemergence tests and seven (7) days after seeding in the post-emergence tests, when the check (control) plants were at the 16-20 cm., 3.0-3.2 leaf stage, and naphthalic anhydride coated seed grown plants were at the 14-16 cm., 2.8-3.0 leaf stage.
Test data from the preemergence tests are shown in Table 25A and from the post-emergence tests in Table 25B. In the tables, the concentration of chemicals is shown in terms of active ingredient in grams per hectare (G/ha); concentrations of the naphthalic anhydride were not measured per se, but were present as in conventional, normally-coated applications. Corn injury is shown in terms of percent inhibition of growth.

On to `COC(=O)c1c(Cl)nn(C)c1S(=O)(=O)NC(=O)Nc1nc(OC)cc(OC)n1` [No.1], for which the “% Injury VL” value came out at 95% in assay [1] (Herbicide No.1 0.56 kg/ha + ERADICANE EXTRA 2.24 kg/ha); 90% in assay [1] (Herbicide No.1 0.56 kg/ha + ERADICANE EXTRA 4.48 kg/ha); 100% in assay [1] (Herbicide No.1 0.56 kg/ha + ERADICANE EXTRA 6.72 kg/ha); 95% in assay [1] (Herbicide No.1 0.56 kg/ha + No. 4 2.24 kg/ha, no antidote); 90% in assay [1] (Herbicide No.1 0.56 kg/ha + No. 4 4.48 kg/ha, no antidote); 100% in assay [1] (Herbicide No.1 0.56 kg/ha + No. 4 6.72 kg/ha, no antidote). Also, the “% Injury VL” value is on record as 95% in assay [1] (Herbicide No.1 0.56 kg/ha alone); 100% in assay [1] (Herbicide No.1 2.24 kg/ha + ERADICANE EXTRA 2.24 kg/ha); 100% in assay [1] (Herbicide No.1 2.24 kg/ha + ERADICANE EXTRA 4.48 kg/ha); 95% in assay [1] (Herbicide No.1 2.24 kg/ha + ERADICANE EXTRA 6.72 kg/ha); 95% in assay [1] (Herbicide No.1 2.24 kg/ha + No. 4 2.24 kg/ha, no antidote); 95% in assay [1] (Herbicide No.1 2.24 kg/ha + No. 4 4.48 kg/ha, no antidote). Besides, the “% Injury VL” value in assay [1] (Herbicide No.1 2.24 kg/ha + No. 4 6.72 kg/ha, no antidote) was determined as 100%; in assay [1] (Herbicide No.1 2.24 kg/ha alone) it was 100%.

As to `O=C1OC(=O)c2cccc3cccc1c23` [compound 2], the “% Inhibition Corn” value in assay [2] (Antidote alone as seed treatment (concentration not measured)) worked out at 14.5%. For the same compound, the inhibition at 0.25 g/ha in assay [2] (Antidote as seed treatment (concentration not measured) with Herbicide No. 1 at 0.25 G/ha) was 14.1%; in assay [2] (Antidote as seed treatment (concentration not measured) with Herbicide No. 2 at 0.25 G/ha) it was 8%; in assay [2] (Antidote as seed treatment (concentration not measured) with Herbicide No. 3 at 0.25 G/ha), 33.7%. Moreover, the inhibition at 0.74 g/ha in assay [2] (Antidote as seed treatment (concentration not measured) with Herbicide No. 1 at 0.74 G/ha) was 27.3%; in assay [2] (Antidote as seed treatment (concentration not measured) with Herbicide No. 2 at 0.74 G/ha) it was 24.9%; in assay [2] (Antidote as seed treatment (concentration not measured) with Herbicide No. 3 at 0.74 G/ha), 58.8%. For the same compound, the inhibition at 2.5 g/ha was determined as 16.7% in assay [2] (Antidote as seed treatment (concentration not measured) with Herbicide No. 1 at 2.5 G/ha) and 19% in assay [2] (Antidote as seed treatment (concentration not measured) with Herbicide No. 2 at 2.5 G/ha). For the same compound, the inhibition at 0.07 g/ha in assay [2] (Antidote as seed treatment (concentration not measured) with Herbicide No. 3 at 0.07 G/ha) was 20.4%.

Turning to `C=CCN(CC=C)C(=O)C(Cl)Cl` [compound 1], the “% Inhibition Corn” value in assay [2] (Antidote alone (rate printed as -)) came to 1.4%. The inhibition at 0.25 g/ha in assay [2] (Antidote at 7.41 G/ha with Herbicide No. 1 at 0.25 G/ha) amounted to 16.1%; in assay [2] (Antidote at 7.41 G/ha with Herbicide No. 2 at 0.25 G/ha), 17.6%; in assay [2] (Antidote at 7.41 G/ha with Herbicide No. 3 at 0.25 G/ha), 73.9%. For the same compound, the inhibition at 0.74 g/ha in assay [2] (Antidote at 7.41 G/ha with Herbicide No. 1 at 0.74 G/ha) amounted to 16.3%; in assay [2] (Antidote at 7.41 G/ha with Herbicide No. 2 at 0.74 G/ha), 15.9%; in assay [2] (Antidote at 7.41 G/ha with Herbicide No. 3 at 0.74 G/ha), 73.1%. Further, the inhibition at 2.5 g/ha was 22.4% in assay [2] (Antidote at 7.41 G/ha with Herbicide No. 1 at 2.5 G/ha) and 23.7% in assay [2] (Antidote at 7.41 G/ha with Herbicide No. 2 at 2.5 G/ha). The compound further returned an inhibition at 0.07 g/ha in assay [2] (Antidote at 7.41 G/ha with Herbicide No. 3 at 0.07 G/ha) of 39.8%.

With `CC1(C)OC(c2ccco2)CN1C(=O)C(Cl)Cl` (stereo not shown) [Antidote No. 15, Oxazolidine, 3-(dichloroacetyl)-5-(2-furanyl)-2,2-dimethyl], the “% Injury VL” value in assay [1] (Herbicide No.1 0.56 kg/ha + No. 4 2.24 kg/ha, Antidote No. 15 0.18 kg/ha) was found to be 90%; in assay [1] (Herbicide No.1 0.56 kg/ha + No. 4 4.48 kg/ha, Antidote No. 15 0.35 kg/ha) it was 95%; in assay [1] (Herbicide No.1 0.56 kg/ha + No. 4 6.78 kg/ha, Antidote No. 15 0.56 kg/ha), 95%; in assay [1] (Herbicide No.1 2.24 kg/ha + No. 4 2.24 kg/ha, Antidote No. 15 0.18 kg/ha), 95%; in assay [1] (Herbicide No.1 2.24 kg/ha + No. 4 4.48 kg/ha, Antidote No. 15 0.35 kg/ha), 95%; in assay [1] (Herbicide No.1 2.24 kg/ha + No. 4 6.78 kg/ha, Antidote No. 15 0.56 kg/ha), 100%.
